According to publication PMC11912471 (Journal of Medicinal Chemistry, 2025):
pIC50: −log10 of the molar value. Structures can show the parent of a compound that is named as a salt. Where two headings read alike, the source gives them in different places.

What was measured:
[1] = target: T1, purified human ODC enzyme (Homo sapiens, UniProt P11926); experiment: In vitro ODC enzyme activity assay; format: biochemical; conditions: for pIC50: read-out: ODC biochemical inhibition IC50
T1 construct: His6 (C); made in house; host or cells: E. coli BL21(DE3)
T1 sequence (P11926 1-461): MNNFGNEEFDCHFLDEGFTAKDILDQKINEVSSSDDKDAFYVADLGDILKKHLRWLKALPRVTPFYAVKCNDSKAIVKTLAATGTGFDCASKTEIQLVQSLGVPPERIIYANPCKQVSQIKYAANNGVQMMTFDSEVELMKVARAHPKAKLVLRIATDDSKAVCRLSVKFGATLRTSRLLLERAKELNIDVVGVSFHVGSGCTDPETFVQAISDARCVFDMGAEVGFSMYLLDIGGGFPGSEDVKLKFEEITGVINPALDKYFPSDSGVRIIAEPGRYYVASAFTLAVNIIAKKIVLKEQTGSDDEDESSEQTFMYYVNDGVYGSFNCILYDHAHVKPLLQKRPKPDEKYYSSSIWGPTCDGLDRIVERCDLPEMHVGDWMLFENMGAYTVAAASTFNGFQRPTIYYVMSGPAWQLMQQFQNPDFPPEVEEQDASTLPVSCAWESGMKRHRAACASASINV
Description: (§1) Our strategy to identify novel ODC inhibitors was to first screen new analogs for ODC inhibition at 50 μM using our in vitro enzyme activity assay and purified human ODC (Table 1). Those showing significant inhibition were then titrated to provide an ODC IC50 followed by cell-based screening against both cancer (Kelly neuroblastoma) and noncancerous (neonatal fibroblasts) cell lines. For the cancer cell line, higher cytotoxicity was desired and for the noncancerous cell line counter screen, lower cytotoxicity was desired.
In vitro ODC activity was measured using 100 ng of purified human ODC enzyme, as we previously described.[53],[99] ODC was incubated with increasing concentrations of inhibitors for 30 min at room temperature in a buffer containing 25 mM Tris and 0.1 mM EDTA. […] In the cell-based ODC activity assay, Kelly neuroblastoma cells that were treated with 500 μM inhibitors were harvested in a buffer containing 25 mM Tris HCl, 0.1 mM EDTA, and 2.5 mM DTT. […] For both the in vitro and cell-based assay, the microcentrifuge tubes were then placed into scintillation vials containing a piece of filter paper saturated with 200 μL of 0.1 M NaOH to capture the release of radiolabeled carbon dioxide. The samples were incubated in a 37 °C incubator while shaking for 30 min (in vitro) or 2 h (cell-based). The enzymatic reaction was stopped by adding 250 μL of 5 M sulfuric acid to each sample and incubating at 37 °C while shaking for 30 min. The microcentrifuge tubes were removed from the scintillation vials, and 5 mL of scintillation fluid was added. Disintegrations per minute (DPM) of each sample was measured using a TriCarb liquid scintillation counter (PerkinElmer). The specific ODC activity is expressed as nmol CO2/min/mg protein (in vitro) or pmol CO2/min/mg protein (cell-based). The individual ODC inhibitor IC50 values were determined using Graphpad Prism 8.

[2] = test system: Kelly neuroblastoma cells; experiment: Sulforhodamine B (SRB) cytotoxicity assay, Kelly neuroblastoma cells; format: cell-based; conditions: for Cell cytotoxicity (72 hr @ 500 μM) Kelly Neuroblastoma: percent cytotoxicity; for cytotoxicity at 500 µM: Kelly, 72 hrs @500 µM, supplement csv, read-out: Kelly Neuroblasoma Cells (72 hrs @500 µM) %cytotoxicity
Description: as §1
(§2) Normal primary human neonatal fibroblast cells (ATCC) were maintained in DMEM medium (Gibco) supplemented with 10% heat-inactivated fetal bovine serum (Hyclone), penicillin (100 IU/mL), and streptomycin (100 μg/mL), nonessential amino acids (0.1 mM) and sodium pyruvate (1 mM). Kelly neuroblastoma cells (Sigma-Aldrich) were maintained in RPMI medium (Corning) supplemented with 10% heat-inactivated fetal bovine serum (Hyclone), penicillin (100 IU/mL), and streptomycin (100 μg/mL). Cell lines were routinely monitored for mycoplasma contamination using the MycoAlert PLUS Mycoplasma Detection Kit (Lonza).
(§3) The colorimetric sulforhodamine B (SRB) assay was used to measure cytotoxicity following treatment with ODC inhibitors. Briefly, Kelly neuroblastoma cells and normal primary human neonatal fibroblast cells were plated in transparent flat 96-well plates and allowed to attach overnight. Cells were treated with control or 500 μM ODC inhibitor for 72 h. Cells were then fixed with 10% TCA at 4 °C for 1 h, washed with deionized water, and dried at room temperature. Cells were stained with 100 μL of 0.4% SRB in 1% acetic acid for 20 min at room temperature, rinsed five times with 1% acetic acid and allowed to dry at room temperature. One hundred μL of 10 mM Tris–HCl pH 7.0 was added to each well, shaken for 10 min at room temperature and absorbance was read at 540 nm. Absorbance values were normalized relative to control readings and converted to percentage by multiplying by one hundred. The percent cytotoxicity was then determined by subtracting the relative percentage of the ODC inhibitor treated readings from the control which is 100%.

[3] = Sulforhodamine B (SRB) cytotoxicity assay, neonatal fibroblasts; format: cell-based, human; conditions: human, normal primary neonatal fibroblast cells; 72 hrs @500 µM; supplement csv
Description: as §1, §2, §3

[4] = test system: normal primary human neonatal fibroblast cells; experiment: as above; format: cell-based; conditions: 500 μM; for Cell cytotoxicity (72 hr @ 500 μM) Neonatal Fibroblasts: percent cytotoxicity
Description: as §1, §2, §3

[5] = test system: polyamine levels in Kelly neuroblastoma cells; experiment: Polyamine analysis (HPLC of dansylated polyamines); format: cell-based; conditions: 500 μM inhibitor; for Kelly Treated Neuroblastoma Cells (Total Spm): Control = 2.57+0.47; for Kelly Treated Neuroblastoma Cells (Spd): Control = 8.52+1.63; for Kelly Treated Neuroblastoma Cells (Total Put): Control = 9.71+1.31; for Kelly Treated Neuroblastoma Cells (Total PA): Control = 20.81 +2.67; for polyamine levels relative to control (in words) / putrescine level (in words): Figure 6B
Description: Polyamines from Kelly neuroblastoma cells treated with 500 μM inhibitors were isolated, dansylated, and analyzed by HPLC. Briefly, polyamines were extracted and protonated in perchloric acid/sodium chloride buffer. To 100 μL of sample, 4.5 nmol of 1,7 diaminoheptane internal standard and 200 μL of 1 M sodium carbonate was added prior to dansylation with 400 μL of 5 mg/mL dansyl chloride (Sigma-Aldrich) for 60 min at 65 °C. One hundred μL of 1 M proline was then added to each reaction and incubated for 20 min at 65 °C. Polyamines were extracted from the mixture using methylene chloride. The methylene chloride was allowed to evaporate, the samples were resuspended in methanol and run through a C18 cleanup column. Samples were then analyzed using a Thermo Scientific/Dionex Ultimate 3000 HPLC, using a Syncronis C18 column (250 × 4.6 mm, […] pore size), and containing a fluorescence detector. The dansylated polyamine peaks were visualized by excitation at 340 nm and emission at 515 nm. The buffers used for elution of the polyamines were as follows: buffer A: 10 mM sodium heptanesulfonate/10% acetontrile at pH 3.4. Buffer B: 100% acetonitrile. The flow rate was 0.7 mL per minute. The column was equilibrated with 55% buffer B/45% buffer A prior to injection of the sample. Upon injection of the sample, elution of polyamines occurs in an isocratic solution of 55% buffer B/45% buffer A for 28 min. The solution was then slowly ramped to 95% buffer B/5% buffer A for 20 min. This gradient was held for 27 min to elute the spermine peak. The solution was then quickly dropped back to 55% buffer B/45% buffer A to re-equilibrate the column prior to the next sample being injected. Using the relative molar response derived from N-dansylated PA and 1,7 diaminoheptane standards, the amount of N-dansylated polyamines was calculated and normalized to total sample protein.

[6] = read-out: ODC biochemical inhibition % (50 μM)

| Structure (SMILES) | inhibition at 50 µM ([1]; 50 µM, supplement csv, read-out: ODC % inhibition (screened at 50 µM)) [%] | inhibition at 50 µM [1, 6] [%] | pIC50 [1] | activity against Kelly neuroblastoma cells (in words) ([2]; 72 h, 500 μM) | Cell cytotoxicity (72 hr @ 500 μM) Kelly Neuroblastoma ([2]; 500 μM) [%] | cytotoxicity at 500 µM [2] [%] | cytotoxicity at 72 h, 500 µM [3] [%] | cytotoxic activity against neonatal fibroblasts (in words) ([4]; 72 h) | Cell cytotoxicity (72 hr @ 500 μM) Neonatal Fibroblasts [4] [%] | Kelly Treated Neuroblastoma Cells (Total Spm) [5] | Kelly Treated Neuroblastoma Cells (Spd) [5] | Kelly Treated Neuroblastoma Cells (Total Put) [5] | Kelly Treated Neuroblastoma Cells (Total PA) [5] | polyamine levels relative to control (in words) ([5]; Kelly neuroblastoma cells) | putrescine level (in words) ([5]; Kelly neuroblastoma cells) | spermidine and spermine levels (in words) ([5]; Kelly neuroblastoma cells, relative to APA) |
| --- | --- | --- | --- | --- | --- | --- | --- | --- | --- | --- | --- | --- | --- | --- | --- | --- |
| NCCCON [APA, 3-(Aminooxy)propan-1-Amine Dihydrochloride] | 99 | > 99 | 7.40 | greater anticancer activity | 77±21 | 77 | 37 | somewhat reduced overt cytotoxic activity | 37±10 | 5.09+1.39 | 7.14+6.27 | 0 | 12.2+7.59 | reduced polyamine levels | undetected |  |
| Cl.Cl.NOCC1(F)CCNC1 (stereo not shown) [Compound 11, 3-[(aminooxy)methyl]-3-fluoropyrrolidine di-formic acid] |  | > 99 | 7.30 |  | 46±9 | 46 | 21 |  | 21±17 | 2.74+0.46 | 1.81+0.73 | 0 | 4.55+1.14 | reduced polyamine levels | undetected | greatest reductions |
